# Patent US20230220047A1, “PEPTIDES FOR TREATMENT OF SEPSIS AND CANCER” (NORWEGIAN UNIVERSITY OF SCIENCE AND TECHNOLOGY (NTNU), priority 2020, published 2023)
# Legend:
# primary human monocytes = experiment: Confocal analysis of E. coli particle uptake by primary human monocytes; assay type: cell-based; conditions: 3 μM, similar extent as P7-Pen
# Method: Cells were pre-incubated with Pen or P7-Pen peptides, followed by addition of Alexa Fluor 488-labeled bioparticles for the times indicated (15, 30 or 45 min). Fluorescent bacteria particles were counted by spot-detection in Bitplane Imaris imaging software and used to calculate the number of particles per cell. […] Pre-incubation with 3 μM cytochalasin D (CytoD, and inhibitor of actin polymerization) inhibited uptake of E. coli to a similar extent as P7-Pen.
# THP-1 cells, THP-1^cherry cells or human PBMC were seeded in 24-well glass-bottom plates (MatTek Corporation), 125,000 cells/well. The THP-1 cells were differentiated into macrophages with 60 ng/ml PMA for 72 h and thereafter rested for 48 h, whereas the PBMC were used the day after isolation. The P7-penatratin peptide or control peptide was added to the cells 30 min before stimulation at 15 μM concentration. If used, 3 μM cytochalasin D (CytoD) was added simultaneously. […] A spot detection mode in the Bitplan Imaris software was used to define individual phagosomes and cells were counted manually. […] Fluorescence voxel intensity of TRAM^cherry at the phagosome is also presented. Statistical significance was calculated in GraphPad Prism by One-way ANOVA Kruskal-Wallis multiple comparison test. […]
# THP-1 cells = experiment: LDH cytotoxicity assay in THP-1 cells; conditions: CPP screen, 15 μM, 30 min pre-treatment, LPS 100 ng/ml
# Method: For every assay, separate wells were seeded for the required controls (Spontaneous LDH Release Controls and Maximum LDH Release Control) with the same amount of cells as used for peptide treatments. All supernatants were analysed in triplicate with the average value of technical replicates taken into calculations.
# THP-1 cells were pre-treated with increasing concentrations of P7-Arg11 and control peptide Arg11 for 1 h (FIG. 3).
# TLR4 [1] = experiment: qPCR of TLR4-mediated cytokine expression in B6 immortalised murine macrophages; assay type: cell-based, mouse; conditions: 10 μM, 1 h pre-treatment, LPS 100 ng/ml
# Method: Cells were pre-treated with 10 μM peptides in cell culture media for 1 h, and stimulated with LPS (100 ng/ml) for increasing lengths of time.
# Immortalized bone-derived-macrophages (iBMDM) from wild type, Tram−/− or TIr4−/− C57BL/6 mice were maintained at 37° C. and 5% CO2 in DMEM supplemented with 10% FCS.
# (§1) Total RNA was isolated from the cells using Qiazol reagent #79306 from QIAGEN, and chloroform extraction followed by purification on RNeasy Mini columns with DNAse digestion (Qiagen). cDNA was prepared using the Maxima First Strand cDNA Synthesis Kit for quantitative real-time polymerase chain reaction (RT-qPCR) (Thermo Fisher Scientific) according to the manufacturer's protocol. qPCR was performed using the PerfeCTa qPCR FastMix (Quanta Biosciences) in replicates and cycled in a StepOnePlus™ Real-Time PCR cycler. The following TaqMan® Gene Expression Assays (Applied Biosystems®) were used: IFNβ (Hs01077958_s1), TNF (Hs00174128_m1), TBP (Hs00427620_m1), CXCL10 (Hs01124251_g1), IL-6 (Hs00174131_m1) and IL-1β (Hs01555410_m1), for human cells; Ifnβ (Mm00439552_s1), Tnf (Mm00443258_m1), Tbp (Mm01277042_m1) and II-1β (Mm00434228_m1), for mouse cells. No RT controls were negative. The level of TBP mRNA was used for normalisation and results presented as relative expression compared to the control untreated sample. Relative expression was calculated using Pfaffl's mathematical model (Pfaffl, Nucleic Acids Research 29(9): e45, 2001). Results are presented as the mean and SD expression fold change for biological replicates relative to non-stimulated cells. Statistical significance was evaluated in GraphPad Prizm 5.03. Data distribution was assumed to be normal but this was not formally tested. The difference between the two groups was determined by two-tailed t test.
# We proceeded with cellular assays to address the effect of peptide pre-treatment on TLR4-mediated cytokine expression in B6 immortalised murine macrophages (FIG. 13). Tested peptides had no cytotoxic effect on B6 murine macrophages (FIG. 13A).
# SLAMF1-TRAM interaction = biological target: T1, SLAMF1-TRAM interaction (Homo sapiens, UniProt Q86XR7); experiment: Co-precipitation of SLAMF1 and TRAM^Flag in the presence of ECFP-tagged peptides; assay type: binding; conditions: N-terminal ECFP-tagged peptides, HEK-293T lysates, anti-Flag IP
# T1 construct: expressed in transfected cells; host or cells: HEK-293T
# T1 sequence (Q86XR7 whole entry): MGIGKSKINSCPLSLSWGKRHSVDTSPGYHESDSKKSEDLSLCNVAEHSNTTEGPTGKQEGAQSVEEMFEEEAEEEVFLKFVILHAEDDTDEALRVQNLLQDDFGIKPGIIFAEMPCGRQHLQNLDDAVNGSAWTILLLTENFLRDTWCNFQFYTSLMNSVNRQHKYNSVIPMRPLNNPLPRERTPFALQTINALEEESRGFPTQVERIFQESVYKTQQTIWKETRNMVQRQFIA
# Source text: (A) Western blot analysis of SLAMF1 and TRAM^Flag co-precipitated in the presence of CFP-tagged peptides. TRAM^Flag was precipitated from cell lysates on agarose beads and distributed across 15 tubes. […] Unbound proteins/peptides were removed by a washing step, and pecipitates analysed by WB (anti-Flag IPs). Reduced SLAMF1 binding to TRAM indicates inhibition of the TRAM/SLAMF1 interaction by the peptide. (B) Sequences of the peptides that were expressed as ECFP-tagged proteins (N-terminal ECFP). Peptides 4 and 5 are not shown and were not pursued.
# HEK293T cells expressing Flag-tagged proteins were lysed using 1×lysis buffer (150 mM NaCl, 50 mM TrisHCl (pH 8.0), 1 mM EDTA, 1% NP40), supplemented with EDTA-free Complete Mini protease Inhibitor Cocktail Tablets and PhosSTOP phosphatase inhibitor cocktail from Roche, 50 mM NaF and 2 mM […] (Sigma). IPs were carried out by rotation of cell lysates at 4° C. for 2 h with anti-flag (M2) agarose (Sigma). Beads were washed 5 times with lysis buffer and heated for 5 min with 1×NuPAGE® LDS Sample Buffer (Thermo Fisher Scientific) before analysis of precipitates by Western blotting. […]
# Inhibition of the TRAM-SLAMF1 interaction using SLAMF1-derived peptides was tested. For the first line of experiments, SLAMF1-derived peptides were co-expressed as N-terminal ECFP-tagged proteins together with SLAMF1 and TRAM^FLAG constructs in HEK-293T cells.
# [2] = tested on: ANBL-6 multiple myeloma cells; experiment: CellTiter-Glo cell viability assay, ANBL-6; assay type: cell-based; conditions: 20 μM, 48 h
# Method: Minor effects on the proliferation of the IH-1 and RPMI 8226 cell lines are seen. Cells were seeded at the level shown (left-hand bar of each set) then incubated in medium containing water, 10 μM penetratin or 10 μM P7-A4-Pen for 48 hr (except for INA-6 cells, which were incubated with 12.5 μM penetratin or 12.5 μM P7-A4-Pen). The number of viable cells was detected based on quantitation of ATP by luminescent signal in correlation to a standard curve prepared for each cell line. Results are based on 3-5 biological replicates for each condition, error bars show standard deviation of mean.
# Cells were seeded and then incubated in growth medium alone or supplemented with water, DMSO, 15 μM penetratin or 15 μM investigational peptide. The growth medium only and H2O—, DMSO- and penetratin-supplemented cultures constituted controls.
# The solid horizontal lines show the amount of cells originally seeded. In (A) ANBL-6 cells were seeded at a level of 10,000 cells/well, then incubated in medium supplemented with water, the control peptide C3A-Pen, P7-Pen, P7-A4-Pen, P7-N4-Pen or P7-K2-Pen for 48 hours. The peptides were included at concentrations of 5, 10, 12.5, 15, 20 or 30 μM. Cells were counted at 48 hours. In (B), ANBL-6 cells were seeded at a level of 5000 cells/well, then incubated in medium supplemented with water, P6-Pen, P-P6-Pen, P7-D4-Pen or P7-A4-Pen for 48 hours. Peptides were included at concentrations of 5, 10 or 20 μM. Cells were counted at 48 hours. […] Results are based on 3 biological replicates, error bars show standard deviation of mean.
# Multiple myeloma cells JJN-3 (DSMZ (Germany) no. ACC 541), ANBL-6 (Cellosaurus accession number CVCL_5425, obtained from Dr Diane Jelinek, Mayo Clinic, Rochester, Minn.), INA-6 (Cellosaurus accession number CVCL_5209, obtained from Dr M. Gramatzki, University of Erlangen-Nurnberg, Erlangen, Germany), RPMI-8226 (ATCC CCL-155), and IH-1 (Cellosaurus accession number CVCL_WZ44, established from the pleural effusion of a myeloma patient by Myeloma research group, IKOM, NTNU, Trondheim, Norway) were grown in RPMI-1640 (Sigma-Aldrich Norway, Oslo, Norway) supplemented with 100 nM penicillin/streptomycin and 10% FCS, and for ANBL-6, IH-1 and INA-6 cells 2 ng/ml recombinant IL-6 (Gibco, Thermo Fisher Scientific, Waltham, Mass., USA). Murine multiple myeloma Vk*MYC cells were obtained from M.D. Leif Bergsagel (Mayo Clinic, Richester, Minn., USA) and cultured in RPMI-1640 supplemented with 2% human serum (B^+, The blood bank, St Olav's Hospital, Trondheim, Norway), 100 nM penicillin/streptomycin, L-Glutamine (2 mM) and recombinant IL-6 (1 ng/ml). HEK293T (ATCC CRL-3216) were cultured in DMEM with 10% FCS. THP-1 TRAM knockout (KO) and TLR4 KO cell lines, and matching lentivirally transduced control cell lines, were differentiated in the same way as wild type (WT) THP-1. TRAM KO THP-1 cell line is described in Yurchenko et al. (supra).
# To evaluate the potential impact of the P7 peptide on proliferation of tumour cells of lymphoid origin, we performed a CellTiter-Glo Luminescent Cell Viability Assay to address proliferation of several multiple myeloma (MM) cell lines. For the assay, cells were incubated for 48 h in respective media containing either solvent (water), 10 μM control peptide (Pen) or the SLAMF1-derived peptide P7-A4-Pen for 48 h (FIG. 32) (with the exception of the INA-6 cells which were incubated with 12.5 μM control peptide or P7-A4-Pen). […] This effect could be mediated by P7-A4-Pen-induced inhibition of signalling pathways that are crucial for driving proliferation and/or survival of MM tumour cells.
# TLR4 [3] = experiment: qPCR of LPS-mediated cytokine mRNA expression in THP-1 macrophages; assay type: cell-based, human; conditions: 15 μM
# Method: SW480 (ATCC CCL-228) and Jurkat (ATCC Clone E6-1; TIB-152) cells were cultured in RPMI 1640 (Sigma-Aldrich, Schnelldorf, Germany) supplemented with 10% heat-inactivated FCS, penicillin/streptomycin (Life Technologies) and 20 mM L-Glutamine. THP-1 cells (ATCC TIB-202) were cultured in RPMI-1640 (high-glucose, ATCC) supplemented with 10% heat inactivated foetal calf serum (FCS), 100 nM penicillin/streptomycin and 5 μM β-mercaptoethanol (Sigma). THP-1 cells were differentiated with 60 ng/ml phorbol 12-myristate 13-acetate (PMA, Sigma) for 72 h, followed by 24 or 48 h in medium without PMA.
# as §1
# STAT1 = experiment: Western blot of STAT1 phosphorylation in LPS-stimulated THP-1 cells; assay type: cell-based, human; conditions: 15 μM, compared to control peptide
# Method: Protein pellets were dissolved by heating protein pellets for 10 min at 95° C. in buffer containing 4 M urea, 1 SDS (Sigma) and NuPAGE® LDS Sample Buffer (4×) (Thermo Fisher Scientific). Otherwise, lysates were made using 1× RIPA lysis buffer (150 mM NaCl, 50 mM TrisHCl (pH 7.5), 1% Triton X100, 5 mM EDTA, protease inhibitors, phosphatase inhibitors). For Western blot analysis we used pre-cast protein gels NuPAGE™ Novex™ and iBlot Transfer Stacks iBlot Gel Transfer Device (Thermo Fisher Scientific). Proteins were transferred to the membrane by dry-blotting using iBlot® 2 NC Regular/Mini Stacks (Life Technologies) in the iBlot 2 Dry Blotting System (Life Technologies). After secondary antibody incubation, membranes were washed and incubated with HRP substrate solution (SuperSignal™ West Femto Maximum Sensitivity Substrate (Thermo Fisher Scientific)). Images were taken using Odyssey® Fc (LI-CORE). Quantification graphs were generated by the analysis of signal intensities for protein bands (protein of interest and endogenous loading control—β-tubulin from the same membrane) using Odyssey software (LI-CORE). Data were normalised to the expression levels of β-tubulin and presented as a relative fold change to the control sample.
compound,measurement,setting,value
"C=C1[C@@H](C)[C@H]2[C@H](Cc3ccccc3)NC(=O)[C@]23[C@H](OC(C)=O)/C=C/[C@@](C)(O)C(=O)[C@@H](C)C/C=C/[C@H]3[C@@H]1O [cytochalasin D, reference compound]",uptake of E. coli,primary human monocytes,inhibited
Ac-ITVYASVTLTGKLALKLALKALKAALKLA-NH2 [Peptide P7-KLA],reduction of LPS-mediated toxicity (LDH assay),THP-1 cells,most effective
same,"TLR4-mediated Ifnβ, Tnf and Il-1β mRNA expression",TLR4 [1],strongly inhibited
P6: SEQ ID NO: 2; amino acid sequence of SLAMF1 positions 324-333 (ITVYASVTLP; listed as Homo sapiens) [Peptide P6],inhibitory effect on SLAMF1-TRAM co-precipitation,SLAMF1-TRAM interaction,highest efficacy
same,anti-proliferative activity at the highest tested concentration,[2],moderate anti-proliferative
TNSITVYASVTLTESGRRRRRRRRRRR (P3-Arg11) [Peptide P3-Arg11],LPS-mediated cytokine mRNA expression,TLR4 [3],not effective
same,phosphorylation of STAT1 upon LPS stimulation,STAT1,no effect
